Where “and” joins values, the source holds several entries; their conditions need not be identical. Equal values may be shown once. Read-outs that look alike come from different tables or passages of the source.
What was measured:
[1] = Mouse plasma pharmacokinetics after intravenous dose; type: in vivo, male C57BL/6 mice; settings: i.v. 3 mg/kg
Experimental: (§1) To compare the in vivo PK profiles to TXL and our previously reported drug lead 1 (Tables S19 and S26),[39] one group of male C57BL/6 mice were administered a single oral dose (p.o., 10 mg/kg) of 2a, 16g, or 16h (refer to Experimental Methods). Additionally, a separate group of mice were given a single intravenous dose (i.v., 3 mg/kg) of each prodrug to obtain plasma clearance (Cl), volume of distribution (Vd), and oral bioavailability data. Blood was sampled at 8 time points over 8 h (i.v.) or 24 h (p.o.) postdose, and plasma was isolated via centrifugation. Tissues (liver, kidney, and brain) were also harvested and homogenized at 3 time points over 24 h after oral dose. The concentrations of prodrug and TFV metabolite in each of these samples was then quantified using LC–MS/MS methodology.
(§2) Healthy male C57BL/6 mice (8–12 weeks old) weighing 20–30 g were procured from Global, India. Three mice were housed in each cage. Temperature and humidity were maintained at 22 ± 3 °C and 30–70%, respectively, and illumination was controlled to provide for 12 h light and 12 h dark cycles. Temperature and humidity were recorded by an autocontrolled data logger system. All animals were provided a laboratory rodent diet (Envigo Research private Ltd., Hyderabad). Reverse osmosis H2O treated with ultraviolet light was provided ad libitum.
(§3) Male mice were divided into two groups (n = 18 total, n = 9 per treatment group, n = 3 per time point, sparse sampling). One group was intravenously administered a solution of 2a, 16g, and 16h in 10% PEG-300, 10% Solutol HS-15, and 80% saline at 3 mg/kg with a dosing volume of 5 mL/kg. The second group was administered a solution of 2a, 16g, and 16h in 10% EtOH and 90% olive oil at 10 mg/kg via oral gavage with a dosing volume of 10 mL/kg.
(§4) Blood samples (approximately 60 μL) were collected from retro-orbital plexus under light isoflurane anesthesia such that the samples were obtained predose, as well as at eight time points post dose: 0.1, 0.25, 0.5, 1, 2, 4, 6, and 8 (i.v.) and 0.25, 0.5, 1, 2, 4, 8, 12, and 24 h (p.o.). Immediately after blood collection, plasma samples were harvested by centrifugation at 4000 rpm and 4 °C for 10 min and stored at −70 °C until LC–MS/MS analysis. Following blood collection from p.o. group, liver, kidney, and brain samples were collected (n = 3 per treatment group per time point) at 1, 4, and 24 h post dose. After isolation, tissue samples were rinsed three times with ice-cold saline and dried with blotting paper. Next, the tissue samples were homogenized using ice-cold PBS (pH = 7.4), and the resulting homogenates were stored below −70 °C until LC-MS/MS analysis. The total homogenate volume was 3 times the brain weight and 5 times the liver and kidney weight.
(§5) Areas under the concentration–time curves (AUC0–8h and AUC0–24h) were calculated via the linear trapezoidal rule[65] using GraphPad Prism v9. Furthermore, terminal elimination rate constants k were determined using linear regression (slope = −k) of the terminal portion of semilog-transformed concentration–time curves (Figures S44, S45, S47, S48, S50, and S51).

[2] = Mouse plasma pharmacokinetics after oral dose; type: in vivo, male C57BL/6 mice
Experimental: as §1, §2, §3, §4, §5

[3] = Mouse tissue (liver, kidney, brain) pharmacokinetics after oral dose; type: in vivo, male C57BL/6 mice; settings: for AUC(0-t) at 24 h: read-out: AUC0–24h
Experimental: as §1, §2, §3, §4, §5

[4] = HepaRG cellular metabolic stability; settings: human, other cell line
[5] = system: HepaRG cells; test: HepaRG cellular metabolic stability; settings: after 3 h loading at 20 μM, 37 °C
[6] = Cellular cytotoxicity (cell viability, CellTiter 96 or resazurin); settings: human, CC50, HEK293T cells, compounds formulated with HSA (5:1)
[7] = system: HIV-1 subtype C strain MJ4; test: Single-cycle non-replicating HIV pseudoviral luciferase assay in HEK293T cells; settings: Human immunodeficiency virus 1, HEK-293T, read-out: HIV IC50
Experimental: Second, HIV IC50 and cellular CC50 were determined with a pseudoviral, whole (HEK293T) cell, nonreplicative HIV assay, using the HIV-1 subtype C strain MJ4 (refer to Experimental Methods). To account for the unique amphiphilic properties of TXL and the novel HTP-based prodrugs, all compounds were formulated in a human serum albumin (HSA) solution (5:1 drug:protein).
Assessment of cytotoxicity and antiviral activity of all final compounds in vitro was conducted according to previously reported procedures.[39] In summary, human embryonic kidney (HEK293T) cells maintained in high glucose (25 mM), Dulbecco’s modified Eagle’s medium (DMEM) supplemented with fetal bovine serum (10%), sodium pyruvate (1 mM), L-glutamine (2 mM), HEPES (25 mM), and gentamicin (50 μg/mL) were used for determinations. The cells were maintained in an incubator at 37 °C under 5% CO2 in a humidified atmosphere. For both cytotoxicity and antiviral screening, all compounds were evaluated in duplicate in at least two independent experiments. All final compounds were formulated with human serum albumin (HSA, 5:1 compound to HSA molar ratio) and subsequently diluted with complete DMEM to 200 μM. Fifty microliters of test compound serial dilutions (3-fold) were prepared in 96-well culture plates, after which 50 μL of HEK293T cells (2 × 10^4 cells/well) was added. […] Cytotoxicity was then assessed by quantifying cell viability using the CellTiter 96 Aqueous One Solution Cell Proliferation Assay (Promega, Madison, WI) or resazurin sodium salt (cat# R7017, Merck, Darmstadt, Germany).[61] […] Antiviral activity was then assessed using a single-cycle, nonreplicating, envelope deleted HIV pseudoviral in vitro assay.[62],[63] The assay relies on the introduction of the firefly luciferase gene into HEK293T cells through infection with HIV-like viral particles, containing Reverse Transcriptase (RT) and Integrase (IN) from the HIV-1 subtype C strain MJ4.[64] The expression of the luciferase in the cells is directly proportional to the level of infection by the HIV-like viral particles and can be used to assess the inhibition of HIV-1 RT and IN. To evaluate anti-HIV activity, 3-fold serial dilutions of all final compounds were prepared in 50 μL over the noncytotoxic concentration range (as determined from the cytotoxicity screens described above) in 96-well culture plates. HEK293T cells (2 × 10^4 cells/well) and HIV-like viral particles, standardized to produce a luminescence signal of 1 × 10^6 relative light units (RLUs) in the growth medium only control, were combined, and 50 μL was added to the wells containing serially diluted test compounds. […] The expression of luciferase was subsequently quantified by adding 100 μL of the Bright-Glo Luciferase Assay substrate (Promega, Madison, WI) to each well of the 96-well plates. After incubation at rt for 3 min, luminescence was quantified on the GloMax Explorer Multimode Microplate Reader (Promega, Madison, WI).

[8] = male, C57BL/6, mouse, iv, prodrug
[9] = male, C57BL/6, mouse, po, plasma, prodrug, p.o. 10 mg/kg
[10] = male, C57BL/6, mouse, brain, po, p.o. 10 mg/kg, read-out: mean prodrug concentration in brain
[11] = male, C57BL/6, mouse, kidney, po, p.o. 10 mg/kg, read-out: mean prodrug concentration in kidney
[12] = male, C57BL/6, mouse, liver, po, p.o. 10 mg/kg, read-out: mean prodrug concentration in liver
[13] = male, C57BL/6, mouse, po, brain, prodrug, p.o. 10 mg/kg
[14] = male, C57BL/6, mouse, po, kidney, prodrug, p.o. 10 mg/kg
[15] = male, C57BL/6, mouse, po, liver, prodrug, p.o. 10 mg/kg

Structure (SMILES): C[C@H](Cn1cnc2c(N)ncnc21)OCP(=O)(O)OCCCSCCCCCCCCCCCCc1ccc(F)cc1.N [16g]
- k (terminal elimination rate constant) ([1]; 3 mg/kg): 0.4057 and 0.406
- Vd at 8 h ([1]; male, C57BL/6, mouse, iv): 19.9 L/kg
- clearance ([1]; male, C57BL/6, mouse, iv): 134 mL/min/kg
- half-life at 8 h ([1]; male, C57BL/6, mouse, iv): 1.71 h
- concentration at 0.1 h ([1]; male, C57BL/6, mouse, iv, 0.1 h, read-out: mean prodrug concentration in plasma): 863 ng/mL
- concentration at 0.25 h ([1]; male, C57BL/6, mouse, iv, 0.25 h, read-out: mean prodrug concentration in plasma): 315 ng/mL
- concentration at 0.5 h ([1]; male, C57BL/6, mouse, iv, 0.5 h, read-out: mean prodrug concentration in plasma): 227 ng/mL
- concentration at 1 h ([1]; male, C57BL/6, mouse, iv, 1 h, read-out: mean prodrug concentration in plasma): 71.5 ng/mL
- concentration at 2 h ([1]; male, C57BL/6, mouse, iv, 2 h, read-out: mean prodrug concentration in plasma): 21.6 ng/mL
- concentration at 4 h ([1]; male, C57BL/6, mouse, iv, 4 h, read-out: mean prodrug concentration in plasma): 12.1 ng/mL
- concentration at 6 h ([1]; male, C57BL/6, mouse, iv, 6 h, read-out: mean prodrug concentration in plasma): 7.5 ng/mL
- concentration at 8 h ([1]; male, C57BL/6, mouse, iv, 8 h, read-out: mean prodrug concentration in plasma): 3.12 ng/mL
- Cmax at 8 h [1, 8]: 863 ng/mL
- Tmax at 8 h [1, 8]: 6 min
- AUC(0-t) at 8 h ([1]; male, C57BL/6, mouse, iv, prodrug, read-out: AUC0–8h): 373 ng·h/mL
- bioavailability ([2]; male, C57BL/6, mouse, plasma, oral, p.o. 10 mg/kg vs i.v. 3 mg/kg, read-out: %F (oral bioavailability)): 20%
- bioavailability at 24 h ([2]; male, C57BL/6, mouse, plasma, po, p.o. 10 mg/kg vs i.v. 3 mg/kg, read-out: %F (oral bioavailability)): 20.9%
- concentration at 0.25 h ([2]; male, C57BL/6, mouse, plasma, po, p.o. 10 mg/kg, 0.25 h, read-out: mean prodrug concentration in plasma): 17 ng/mL
- concentration at 0.5 h ([2]; male, C57BL/6, mouse, plasma, po, p.o. 10 mg/kg, 0.5 h, read-out: mean prodrug concentration in plasma): 43 ng/mL
- concentration at 1 h ([2]; male, C57BL/6, mouse, plasma, po, p.o. 10 mg/kg, 1 h, read-out: mean prodrug concentration in plasma): 58.6 ng/mL
- concentration at 2 h ([2]; male, C57BL/6, mouse, plasma, po, p.o. 10 mg/kg, 2 h, read-out: mean prodrug concentration in plasma): 55.9 ng/mL
- concentration at 4 h ([2]; male, C57BL/6, mouse, plasma, po, p.o. 10 mg/kg, 4 h, read-out: mean prodrug concentration in plasma): 16 ng/mL
- concentration at 8 h ([2]; male, C57BL/6, mouse, plasma, po, p.o. 10 mg/kg, 8 h, read-out: mean prodrug concentration in plasma): 11.2 ng/mL
- concentration at 12 h ([2]; male, C57BL/6, mouse, plasma, po, p.o. 10 mg/kg, 12 h, read-out: mean prodrug concentration in plasma): 10.5 ng/mL
- half-life at 24 h ([2]; male, C57BL/6, mouse, po, plasma, p.o. 10 mg/kg): 4.19 h
- Cmax at 24 h [2, 9]: 58.6 ng/mL
- Tmax [2, 9]: 1 h
- AUC(0-t) at 24 h ([2]; male, C57BL/6, mouse, po, plasma, prodrug, p.o. 10 mg/kg, read-out: AUC0–24h): 260 ng·h/mL
- mean TFV concentration in plasma ([2]; p.o. 10 mg/kg of prodrug, 0.25 h, LLOQ 4.84 ng/mL): BLQ
- mean prodrug concentration in plasma ([2]; p.o. 10 mg/kg, 24 h, BLQ = below LLOQ (0.58 ng/mL 2a, 0.62 ng/mL 16g)): BLQ
- Vd ([2]; plasma, p.o. 10 mg/kg): 48.7 L/kg
- k (terminal elimination rate constant) ([2]; plasma, p.o. 10 mg/kg, 10 mg/kg): 0.1654 and 0.165
- TFV in brain tissue ([3]; brain, 1, 4 and 24 h after p.o. 10 mg/kg of prodrug, LLOQ 4.84 ng/mL (9.67 for 16h)): BLQ
- concentration at 1 h [3, 10]: 3.24 ng/mL
- concentration at 4 h [3, 10]: 5.74 ng/mL
- concentration at 1 h [3, 11]: 310 ng/mL
- concentration at 4 h [3, 11]: 602 ng/mL
- concentration at 24 h ([3]; male, C57BL/6, mouse, kidney, po, p.o. 10 mg/kg, 24 h, read-out: mean prodrug concentration in kidney): 25.4 ng/mL
- concentration at 1 h [3, 12]: 5330 ng/mL
- concentration at 4 h [3, 12]: 4810 ng/mL
- concentration at 24 h ([3]; male, C57BL/6, mouse, liver, po, p.o. 10 mg/kg, 24 h, read-out: mean prodrug concentration in liver): 24.8 ng/mL
- Cmax at 24 h [3, 13]: 5.74 ng/mL
- AUC(0-t) at 24 h [3, 13]: 13.5 ng·h/mL
- Cmax at 24 h [3, 14]: 602 ng/mL
- AUC(0-t) at 24 h [3, 14]: 7650 ng·h/mL
- Cmax at 24 h [3, 15]: 5330 ng/mL
- Tmax [3, 15]: 1 h
- AUC(0-t) at 24 h [3, 15]: 63600 ng·h/mL
- mean prodrug concentration in brain ([3]; p.o. 10 mg/kg, 24 h, BLQ = below limit of quantitation): BLQ
- hepatocyte CLint at 20 μM ([4]; HepaRG Clint,u, calculated from cellular t1/2): 27 µL/min/1e6 cells
- half-life at 20 μM ([4]; HepaRG t1/2, after 3 h loading at 20 μM, 37 °C): 0.783 h
- HepaRG t1/2 [5]: 0.778 ± 0.005 h
- CC50 at 48 h [6]: > 100 µM
- IC50 [7]: 0.008 to 0.012 µM
